melting point [°C] | Structure (SMILES)
126 | CCOC(=O)/C=C(\C[C@@](O)(c1ccccc1)C(F)(F)F)N[C@H](C)c1ccccc1 [Compound 5a-1, (R)-ethyl 6,6,6,-trifluoro-5-hydroxy-5-phenyl-(((R)-1-phenyl)amino)hex-2-enoate]
133 | CCOC(=O)/C=C(\C[C@@](O)(c1cccs1)C(F)(F)F)N[C@H](C)c1ccccc1 [Compound 5ac-1, (S)-ethyl 6,6,6-trifluoro-5-hydroxy-3-(((R)-1-phenylethyl)amino)-5-(thiophen-2-yl)hexa-2-enoate]

— patent US20180118648A1, “5-SUBSTITUTED-5-HYDROXY-5-ARYL-3-OXO-PENTANOATE DERIVATIVES AND THEIR ENANTIOPURE FORMS” (OKINAWA INSTITUTE OF SCIENCE AND TECHNOLOGY SCHOOL …, priority 2015, published 2018)
